pIC50: −log10 of the molar value. Several values for one entry are separate records, joined by “and”; a condition that tells them apart may be missing. Equal values may be shown once. Blank lines part the entries; values can stand above or below the compound they belong to.
Tested on: 349418-098-R-PDC complex spheroid viability
Test: Anticancer human tumor 349418-098-R-PDC patient-derived lung adenocarcinoma cell line growth inhibition
Details: for viability, T/C: stronger effect = lower value
Excerpt: Multicellular complex tumor spheroid response to LSD1 Inhibitor Iadademstat in combination with a variety of drugs and investigational agents in selected tumor cell lines
The current study was undertaken to assess response to LSD1 inhibitors in combination with standard-of-care drugs and investigational agents in solid tumor complex spheroid models as well as in the K-562 leukemia. Complex spheroids include a stromal component modeled by human endothelial cells (HUVEC) and fibroblasts modeled by human mesenchymal stem cells (MSCs). The concentration ranges selected for each drug and investigational agent were based upon clinically achievable concentrations if the clinical Cmax of the agent was known.
Compounds. The drugs and investigational agents used in this study are listed on Table 1. All of the agents used, including staurosporine (NSC755774) and gemcitabine (NSC613327), were obtained from the Developmental Therapeutics Program, NCI. FDA-approved anticancer drugs are available from the NCI at http://dtp.nci.nih.gov/branches/dscb/oncology_drugset_explanation.html. Drugs and investigational agents were >95% pure by proton nuclear magnetic resonance (NMR) and liquid chromatography/mass spectrometry (LC/MS). Stock solutions were prepared at 400x in DMSO, stored at -70 degrees C, and diluted in fresh medium prior to their use. The final concentration of DMSO in cell culture wells never exceeded 0.25% (v/v). The FDA-approved anticancer drug set is available from the Developmental Therapeutics Program at https://dtp.cancer.gov/organization/dscb/obtaining/available_plates.htm. All drugs and investigational agents were tested over a range starting from a high concentration at or near the clinical Cmax and decreasing in half-log increments. If the clinical Cmax for an agent had not been determined, the highest concentration tested was 10 microM.
Cell Lines. The patient-derived cancer cell (PDC) lines: 292921-168-R-J2-PDC, K24384-001-R-PDC, and 521955-158-R2-J5-PDC pancreatic carcinomas, 556581-035-R-J1 ovarian carcinoma, 324938-238-R-J1-PDC, 855422-203-R-J1-PDC and 883617-216-R-J1-PDC urothelial bladder carcinomas, 743489-274-T-PDC renal cell carcinoma, 138582-R-J1 Merkel cell tumor, K60290-347-R-J1 and K57222-313-R-J1-PDC glioblastomas, 653999-131-R-J2-PDC, LG0703-F948-PDC, and 349418-098-R-PDC non-small cell lung carcinomas, 885512-296-R-J2-PDC, 171881-019-R-J1-PDC breast carcinomas and 186277-243-T-J2-PDC and 233499-124-R-J2-PDC colon carcinomas were obtained from the NCI Patient-Derived Models Repository (PDMR, https://pdmr.cancer.gov). The established cell lines NCI/ADR-RES (RRID:CVCL_14520 and OVCAR-5 (RRID:CVCL_1628) ovarian carcinomas, 786-O (RRID:CVCL_1051) and A498 (RRID:CVCL_A498) renal cell carcinoma, NCI-H211 (ATCC, cat. CRL-5824; RRID:CVCL_1529), NCI-H196 (ATCC, cat. CRL-5823, RRID:CVCL_1509), SW 1271 (ATCC, cat. CRL-2177, RRID:CVCL_1716) and NCI-H1876 (ATCC, cat. CRL-5902, RRID:CVCL_1503) small cell lung carcinomas, MDA-MB-231 (RRID:CVCL_0062) and MDA-MB-468 (RRID:CVCL_0419)breast carcinomas (10-12). Pooled donor human umbilical vein endothelial cells (HUVEC, Lonza, cat. CC-2519) and human mesenchymal stem cells (hMSC, Lonza, cat. PT-2501) were purchased from Lonza (Walkersville, MD).
Cell Culture. All cells were maintained in an incubator at 37 degrees C and 5% CO2 with 95% humidity. The PDC lines were cultured according to standard operating procedures established by the NCI PDMR (https://pdmr.cancer.gov). Briefly all PDCs were thawed and cultured in Matrigel-coated flasks prepared with a working solution of 1X Ham's F-12 nutrient mix, without supplementation (Invitrogen, Waltham, MA, cat. 11765054), 100 U/mL penicillin-streptomycin (Invitrogen, cat. 15140122), and 2.5% Matrigel (Corning Inc., Corning, NY, cat. 354248) for the first three passages. […]
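Further: spheroids exposed to agents for seven days before readout.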
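Wherever viability, T/C is given: 100% = DMSO vehicle control wells.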

Compound: O=C(c1cc(Cc2n[nH]c(=O)c3ccccc23)ccc1F)N1CCN(C(=O)C2CC2)CC1 + NC1CCC(NC2CC2c2ccccc2)CC1
pIC50 (curve of first compound, second compound 0.1 µM): 5.37
pIC50 (curve of first compound, second compound 0.316 µM): 5.23
pIC50 (curve of first compound, second compound 1 µM): 5.38
pIC50 (curve of first compound, second compound 3.16 µM): 5.31
pIC50 (curve of first compound, second compound 10 µM): 5.60
viability, T/C (second compound 0.1 µM, first compound 0.0316 µM): 93.9%
viability, T/C (second compound 0.1 µM, first compound 0.1 µM): 88.8%
viability, T/C (second compound 0.1 µM, first compound 0.316 µM): 82.6%
viability, T/C (second compound 0.1 µM, first compound 1 µM): 77.8%
viability, T/C (second compound 0.1 µM, first compound 3.16 µM): 51.7%
viability, T/C (second compound 0.1 µM, first compound 10 µM): 40.6%
viability, T/C (second compound 0.316 µM, first compound 0.0316 µM): 93.8%
viability, T/C (second compound 0.316 µM, first compound 0.1 µM): 87.3%
viability, T/C (second compound 0.316 µM, first compound 0.316 µM): 82.4%
viability, T/C (second compound 0.316 µM, first compound 1 µM): 77.2%
viability, T/C (second compound 0.316 µM, first compound 3.16 µM): 59.5%
viability, T/C (second compound 0.316 µM, first compound 10 µM): 41.1%
viability, T/C (second compound 1 µM, first compound 0.0316 µM): 106%
viability, T/C (second compound 1 µM, first compound 0.1 µM): 98.1%
viability, T/C (second compound 1 µM, first compound 0.316 µM): 79.4%
viability, T/C (second compound 1 µM, first compound 1 µM): 75.4%
viability, T/C (second compound 1 µM, first compound 3.16 µM): 62.2%
viability, T/C (second compound 1 µM, first compound 10 µM): 28.9%
viability, T/C (second compound 3.16 µM, first compound 0.0316 µM): 92.4%
viability, T/C (second compound 3.16 µM, first compound 0.1 µM): 89%
viability, T/C (second compound 3.16 µM, first compound 0.316 µM): 87%
viability, T/C (second compound 3.16 µM, first compound 1 µM): 69.6%
viability, T/C (second compound 3.16 µM, first compound 3.16 µM): 64.6%
viability, T/C (second compound 3.16 µM, first compound 10 µM): 32.4%
viability, T/C (second compound 10 µM, first compound 0.0316 µM): 89.5%
viability, T/C (second compound 10 µM, first compound 0.1 µM): 68.7%
viability, T/C (second compound 10 µM, first compound 0.316 µM): 64.8%
viability, T/C (second compound 10 µM, first compound 1 µM): 62.4%
viability, T/C (second compound 10 µM, first compound 3.16 µM): 48.7%
viability, T/C (second compound 10 µM, first compound 10 µM): 38.2%

pIC50 (curve of compound): 7.76 and 8.21
Compound: COc1cc(Nc2ncc3c(n2)-c2ccc(Cl)cc2C(c2c(F)cccc2OC)=NC3)ccc1C(=O)O
viability, T/C (compound 0.00316 µM): 81.5% and 59.7%
viability, T/C (compound 0.01 µM): 63.8% and 43.1%
viability, T/C (compound 0.0316 µM): 35.4% and 41.2%
viability, T/C (compound 0.1 µM): 40.7% and 45.3%
viability, T/C (compound 0.316 µM): 31.1% and 40.4%
viability, T/C (compound 1 µM): 31.7% and 39.1%

pIC50 (curve of compound): 7.15 and 7.29
Compound: NS(=O)(=O)OCC1CC(n2ccc3c(NC4CCc5ccccc54)ncnc32)CC1O (centres undefined)
viability, T/C (compound 0.00949 µM): 97.7% and 104%
viability, T/C (compound 0.03 µM): 98% and 68.5%
viability, T/C (compound 0.0949 µM): 33.6% and 29.1%
viability, T/C (compound 0.3 µM): 18.3% and 11%
viability, T/C (compound 0.949 µM): 7.34% and 5.1%
viability, T/C (compound 3 µM): 4.71% and 4.35%

Reference: PubChem BioAssay AID1918936 (Molecular Pharmacology Branch, DTP, NCI, 2023)
